The target in test [1] is T1, Ephrin type-A receptor 1 (Homo sapiens) (UniProt P21709).
T1 sequence (whole entry): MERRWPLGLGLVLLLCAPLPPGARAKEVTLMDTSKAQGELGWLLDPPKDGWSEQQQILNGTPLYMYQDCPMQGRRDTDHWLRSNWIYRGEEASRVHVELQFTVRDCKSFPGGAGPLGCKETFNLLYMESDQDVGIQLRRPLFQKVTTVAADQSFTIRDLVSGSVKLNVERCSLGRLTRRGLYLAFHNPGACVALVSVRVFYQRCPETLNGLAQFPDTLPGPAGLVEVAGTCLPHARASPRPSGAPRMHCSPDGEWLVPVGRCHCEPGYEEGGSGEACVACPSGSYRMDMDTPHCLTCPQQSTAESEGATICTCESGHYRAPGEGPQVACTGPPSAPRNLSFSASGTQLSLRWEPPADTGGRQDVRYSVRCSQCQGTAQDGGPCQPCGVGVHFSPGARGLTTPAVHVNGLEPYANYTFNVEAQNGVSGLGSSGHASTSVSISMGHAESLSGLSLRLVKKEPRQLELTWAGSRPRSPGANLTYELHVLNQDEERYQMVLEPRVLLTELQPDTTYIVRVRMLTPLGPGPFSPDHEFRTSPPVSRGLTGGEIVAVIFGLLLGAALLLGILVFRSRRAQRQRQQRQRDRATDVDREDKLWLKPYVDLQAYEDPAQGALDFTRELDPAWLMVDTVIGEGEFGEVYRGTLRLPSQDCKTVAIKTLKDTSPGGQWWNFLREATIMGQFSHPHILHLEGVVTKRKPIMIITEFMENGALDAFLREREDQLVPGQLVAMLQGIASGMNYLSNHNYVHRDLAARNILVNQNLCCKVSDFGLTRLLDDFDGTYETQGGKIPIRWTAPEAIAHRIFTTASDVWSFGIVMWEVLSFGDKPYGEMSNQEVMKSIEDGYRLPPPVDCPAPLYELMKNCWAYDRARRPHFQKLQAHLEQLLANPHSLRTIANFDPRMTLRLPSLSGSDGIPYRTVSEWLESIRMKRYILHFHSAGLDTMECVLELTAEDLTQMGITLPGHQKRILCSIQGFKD
In words: Selectivity interaction (ProQinase) EUB0000171b EPHA1.

Test [2] addresses Serine/threonine-protein kinase/endoribonuclease IRE1 (Homo sapiens) (UniProt O75460). The note with it: at 10 µM.
Test [3] concerns the target Ribosomal protein S6 kinase alpha-6 (Homo sapiens, UniProt Q9UK32). Nature of the test: Selectivity interaction (Ambit KINOMEscan and KiNATiv profiling in Jurkat cells) EUB0000090b RPS6KA6. As to conditions: at 1 µM. The class given is cell-based.
Test [4] concerns the target Casein kinase I isoform gamma-2 (Homo sapiens) (UniProt P78368). As to conditions: at 10 µM.
Test [5] deals with 1-phosphatidylinositol 3-phosphate 5-kinase (Homo sapiens) (UniProt Q9Y2I7). In words: Selectivity interaction (KinomeScan (DiscoverX)) EUB0001079a PIKFYVE. As to conditions: at 1 µM.
The target in test [6] is Serine/threonine-protein kinase N2 (Homo sapiens, UniProt Q16513). In words: Selectivity interaction (KinomeScan (DiscoverX)) EUB0001079a PKN2. As to conditions: at 1 µM.
Sequence of Serine/threonine-protein kinase N2 (Q16513 whole entry, looked up): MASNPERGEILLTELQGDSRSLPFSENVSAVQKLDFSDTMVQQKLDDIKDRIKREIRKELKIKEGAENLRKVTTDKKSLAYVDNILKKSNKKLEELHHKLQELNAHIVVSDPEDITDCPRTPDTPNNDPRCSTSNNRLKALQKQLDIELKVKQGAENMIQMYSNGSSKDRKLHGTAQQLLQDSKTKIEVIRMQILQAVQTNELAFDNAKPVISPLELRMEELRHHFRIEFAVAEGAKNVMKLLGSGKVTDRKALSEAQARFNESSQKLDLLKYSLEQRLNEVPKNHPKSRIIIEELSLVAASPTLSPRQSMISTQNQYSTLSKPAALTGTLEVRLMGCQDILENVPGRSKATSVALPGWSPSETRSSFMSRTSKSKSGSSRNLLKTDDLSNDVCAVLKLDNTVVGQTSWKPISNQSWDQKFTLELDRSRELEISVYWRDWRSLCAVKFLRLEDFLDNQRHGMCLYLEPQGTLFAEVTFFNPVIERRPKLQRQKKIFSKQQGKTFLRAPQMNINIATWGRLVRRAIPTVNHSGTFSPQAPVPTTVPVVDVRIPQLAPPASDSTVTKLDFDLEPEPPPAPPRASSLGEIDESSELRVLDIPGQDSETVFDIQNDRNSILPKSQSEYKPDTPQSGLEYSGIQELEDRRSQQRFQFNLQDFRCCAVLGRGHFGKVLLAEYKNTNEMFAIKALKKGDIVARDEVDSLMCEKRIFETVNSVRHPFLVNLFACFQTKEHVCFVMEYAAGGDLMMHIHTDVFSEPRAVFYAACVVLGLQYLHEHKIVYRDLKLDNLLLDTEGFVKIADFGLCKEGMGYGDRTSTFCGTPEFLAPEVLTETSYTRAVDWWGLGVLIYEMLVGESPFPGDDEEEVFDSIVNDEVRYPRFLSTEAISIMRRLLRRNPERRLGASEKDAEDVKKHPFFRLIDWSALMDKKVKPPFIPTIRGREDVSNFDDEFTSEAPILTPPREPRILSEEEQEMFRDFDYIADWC
The subject of test [7] is Tyrosine-protein kinase ABL1 (Homo sapiens), P00519 [F317I]. Nature of the test: (§1) Selectivity interaction (KinomeScan (DiscoverX)) EUB0000092b ABL1. As to conditions: at 10 µM.
Test [8] deals with Tyrosine-protein kinase ABL1 (Homo sapiens), P00519 [F317L]. Described as §1. As to conditions: at 10 µM.
Test [9] deals with Tyrosine-protein kinase ABL1 (Homo sapiens), P00519 [H396P]. The description is as §1. As to conditions: at 10 µM.
Test [10] concerns Tyrosine-protein kinase ABL1 (Homo sapiens), P00519 [M351T]. Described as §1. The note with it: at 10 µM.
The test system of test [11] is Tyrosine-protein kinase ABL1 (Homo sapiens), P00519 [Q252H]. The test is described as §1. As to conditions: at 10 µM.
For test [12], the system named is Tyrosine-protein kinase ABL1 (Homo sapiens), P00519 [T315I]. The description is as §1. The note with it: at 10 µM.
Test [13] has as its target Tyrosine-protein kinase ABL1 (Homo sapiens, UniProt P00519). Described as §1. As to conditions: at 10 µM.
The target in test [14] is T2, cAMP-dependent protein kinase catalytic subunit PRKX (Homo sapiens) (UniProt P51817).
T2 sequence (whole entry): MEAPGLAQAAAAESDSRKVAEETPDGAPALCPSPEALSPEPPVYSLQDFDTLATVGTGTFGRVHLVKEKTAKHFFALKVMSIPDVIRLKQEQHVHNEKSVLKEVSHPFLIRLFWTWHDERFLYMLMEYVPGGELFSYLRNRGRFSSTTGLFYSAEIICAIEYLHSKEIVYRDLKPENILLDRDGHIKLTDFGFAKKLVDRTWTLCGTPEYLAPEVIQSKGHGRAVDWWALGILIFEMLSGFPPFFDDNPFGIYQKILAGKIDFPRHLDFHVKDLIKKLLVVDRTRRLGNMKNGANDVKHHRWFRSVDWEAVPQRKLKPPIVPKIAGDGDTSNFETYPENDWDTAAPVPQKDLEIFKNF
Nature of the test: Selectivity interaction (KinomeScan (DiscoverX)) EUB0000655a PRKX. As to conditions: at 10 µM.

For test [15], the target named is ATP-sensitive inward rectifier potassium channel 11 (Homo sapiens) (UniProt Q14654). Nature of the test: Selectivity interaction (Eurofins CEREP Diversity Profile (receptors and ion channels)) EUB0000279b KCNJ11. The note with it: at 10 µM.
Sequence of ATP-sensitive inward rectifier potassium channel 11 (Homo sapiens) (Q14654 whole entry): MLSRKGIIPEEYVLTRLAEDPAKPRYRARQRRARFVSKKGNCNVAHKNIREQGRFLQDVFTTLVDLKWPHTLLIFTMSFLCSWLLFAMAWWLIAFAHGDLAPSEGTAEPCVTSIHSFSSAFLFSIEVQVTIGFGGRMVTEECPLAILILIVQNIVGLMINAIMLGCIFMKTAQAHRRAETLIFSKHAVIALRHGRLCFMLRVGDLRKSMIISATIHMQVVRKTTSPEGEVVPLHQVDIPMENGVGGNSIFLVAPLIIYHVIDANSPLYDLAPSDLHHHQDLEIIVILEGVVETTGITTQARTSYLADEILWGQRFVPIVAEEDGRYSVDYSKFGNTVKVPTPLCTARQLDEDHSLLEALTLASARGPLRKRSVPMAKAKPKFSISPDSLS
The target in test [16] is Homeodomain-interacting protein kinase 1 (Homo sapiens, UniProt Q86Z02). In words: Selectivity interaction (Kinase panel (Z-LYTE Assay)) EUB0001632a HIPK1. As to conditions: at 10 µM.
Sequence of Homeodomain-interacting protein kinase 1 (Q86Z02 whole entry, looked up): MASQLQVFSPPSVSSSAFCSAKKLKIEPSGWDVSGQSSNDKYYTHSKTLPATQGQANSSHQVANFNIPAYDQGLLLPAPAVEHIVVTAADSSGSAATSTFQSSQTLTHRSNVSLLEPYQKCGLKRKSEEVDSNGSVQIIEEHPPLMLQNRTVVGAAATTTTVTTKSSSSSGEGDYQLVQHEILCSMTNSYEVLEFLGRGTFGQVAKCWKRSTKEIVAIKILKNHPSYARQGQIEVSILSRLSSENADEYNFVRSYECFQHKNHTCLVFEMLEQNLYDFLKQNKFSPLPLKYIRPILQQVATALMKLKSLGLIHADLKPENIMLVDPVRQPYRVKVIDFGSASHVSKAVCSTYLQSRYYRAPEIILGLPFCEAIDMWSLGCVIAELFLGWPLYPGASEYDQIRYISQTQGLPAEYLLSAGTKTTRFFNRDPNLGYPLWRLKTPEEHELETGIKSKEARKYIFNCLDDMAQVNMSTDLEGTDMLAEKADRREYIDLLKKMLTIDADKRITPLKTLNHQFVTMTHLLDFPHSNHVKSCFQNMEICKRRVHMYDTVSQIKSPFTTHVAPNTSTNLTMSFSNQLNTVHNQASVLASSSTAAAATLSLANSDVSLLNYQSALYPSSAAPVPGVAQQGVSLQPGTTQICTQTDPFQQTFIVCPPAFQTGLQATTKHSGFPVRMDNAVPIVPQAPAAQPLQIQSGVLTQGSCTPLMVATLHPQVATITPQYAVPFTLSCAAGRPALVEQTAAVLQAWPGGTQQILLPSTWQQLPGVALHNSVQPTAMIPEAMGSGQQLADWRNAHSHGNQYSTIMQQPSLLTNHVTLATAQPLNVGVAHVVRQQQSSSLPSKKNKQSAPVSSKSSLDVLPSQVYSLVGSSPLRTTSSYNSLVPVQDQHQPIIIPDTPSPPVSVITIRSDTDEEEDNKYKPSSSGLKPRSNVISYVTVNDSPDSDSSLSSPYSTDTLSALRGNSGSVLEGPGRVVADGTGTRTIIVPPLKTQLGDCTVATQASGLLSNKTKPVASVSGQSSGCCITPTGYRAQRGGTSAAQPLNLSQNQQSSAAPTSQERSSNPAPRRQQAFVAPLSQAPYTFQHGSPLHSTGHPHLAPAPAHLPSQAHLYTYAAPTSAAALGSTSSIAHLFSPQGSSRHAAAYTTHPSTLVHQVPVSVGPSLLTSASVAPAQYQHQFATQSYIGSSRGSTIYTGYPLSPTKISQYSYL
Test [17] addresses Serine/threonine-protein kinase B-raf (Homo sapiens) (UniProt P15056). Nature of the test: Selectivity interaction (SelectScreen profiling (Invitrogen)) EUB0000607a BRAF. As to conditions: at 2 µM.
Test [18] has as its target Mitogen-activated protein kinase 14 (Homo sapiens, UniProt Q16539).
Test [19] deals with Interleukin-1 receptor-associated kinase 1 (Homo sapiens) (UniProt P51617). In words: Selectivity interaction (KinomeScan (DiscoverX)) EUB0000229b IRAK1. The note with it: at 10 µM.
The target of test [20] is Epithelial discoidin domain-containing receptor 1 (Homo sapiens) (UniProt Q08345). As to conditions: at 10 µM.
The target of test [21] is Hepatocyte growth factor receptor (Homo sapiens, UniProt P08581). The note with it: at 10 µM.
Test [22] deals with Ribosomal protein S6 kinase beta-1 (Homo sapiens, UniProt P23443). Nature of the test: Selectivity interaction (ActivX KiNativ screen (ex vivo kinase selectivity in human PBMCs)) EUB0001619a RPS6KB1. The class given is cell-based. The note with it: PBMC, at 1 µM.
The target in test [23] is Sphingosine kinase 1 (Homo sapiens) (UniProt Q9NYA1). The note with it: at 1 µM.
Sequence of Sphingosine kinase 1 (Homo sapiens) (Q9NYA1 whole entry): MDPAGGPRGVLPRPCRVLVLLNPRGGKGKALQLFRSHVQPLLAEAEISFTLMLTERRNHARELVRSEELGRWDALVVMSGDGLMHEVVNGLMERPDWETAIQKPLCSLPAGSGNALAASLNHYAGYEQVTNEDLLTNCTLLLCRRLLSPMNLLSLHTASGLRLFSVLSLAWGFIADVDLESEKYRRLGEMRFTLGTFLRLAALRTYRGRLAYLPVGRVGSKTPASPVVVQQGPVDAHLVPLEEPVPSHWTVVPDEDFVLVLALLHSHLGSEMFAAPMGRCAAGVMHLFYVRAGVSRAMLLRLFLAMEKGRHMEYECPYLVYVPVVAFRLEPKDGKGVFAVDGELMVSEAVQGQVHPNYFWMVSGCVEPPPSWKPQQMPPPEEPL

The structures appear in SMILES notation.

Sequence of Ribosomal protein S6 kinase alpha-6 (Q9UK32 whole entry, canonical isoform): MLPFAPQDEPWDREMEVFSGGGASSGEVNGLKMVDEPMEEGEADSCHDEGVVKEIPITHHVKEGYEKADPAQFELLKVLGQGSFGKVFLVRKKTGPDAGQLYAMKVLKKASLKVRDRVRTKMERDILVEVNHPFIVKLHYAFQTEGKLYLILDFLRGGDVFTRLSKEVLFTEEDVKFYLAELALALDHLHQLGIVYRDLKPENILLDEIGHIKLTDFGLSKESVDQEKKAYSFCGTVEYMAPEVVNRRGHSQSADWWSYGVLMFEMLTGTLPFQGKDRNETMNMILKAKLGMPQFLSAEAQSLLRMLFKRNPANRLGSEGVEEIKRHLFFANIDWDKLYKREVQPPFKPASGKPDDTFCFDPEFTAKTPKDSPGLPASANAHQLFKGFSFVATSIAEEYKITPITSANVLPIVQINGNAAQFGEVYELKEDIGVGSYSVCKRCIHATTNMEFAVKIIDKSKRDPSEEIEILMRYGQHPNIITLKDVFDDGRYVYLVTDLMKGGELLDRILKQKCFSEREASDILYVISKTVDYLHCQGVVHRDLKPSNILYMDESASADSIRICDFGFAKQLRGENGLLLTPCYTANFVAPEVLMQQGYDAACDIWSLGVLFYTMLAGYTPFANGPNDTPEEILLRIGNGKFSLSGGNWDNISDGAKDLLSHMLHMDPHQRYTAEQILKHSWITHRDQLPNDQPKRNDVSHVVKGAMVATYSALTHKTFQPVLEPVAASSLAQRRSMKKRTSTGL
Sequence of Serine/threonine-protein kinase/endoribonuclease IRE1 (Homo sapiens) (O75460 19-977 limits assumed): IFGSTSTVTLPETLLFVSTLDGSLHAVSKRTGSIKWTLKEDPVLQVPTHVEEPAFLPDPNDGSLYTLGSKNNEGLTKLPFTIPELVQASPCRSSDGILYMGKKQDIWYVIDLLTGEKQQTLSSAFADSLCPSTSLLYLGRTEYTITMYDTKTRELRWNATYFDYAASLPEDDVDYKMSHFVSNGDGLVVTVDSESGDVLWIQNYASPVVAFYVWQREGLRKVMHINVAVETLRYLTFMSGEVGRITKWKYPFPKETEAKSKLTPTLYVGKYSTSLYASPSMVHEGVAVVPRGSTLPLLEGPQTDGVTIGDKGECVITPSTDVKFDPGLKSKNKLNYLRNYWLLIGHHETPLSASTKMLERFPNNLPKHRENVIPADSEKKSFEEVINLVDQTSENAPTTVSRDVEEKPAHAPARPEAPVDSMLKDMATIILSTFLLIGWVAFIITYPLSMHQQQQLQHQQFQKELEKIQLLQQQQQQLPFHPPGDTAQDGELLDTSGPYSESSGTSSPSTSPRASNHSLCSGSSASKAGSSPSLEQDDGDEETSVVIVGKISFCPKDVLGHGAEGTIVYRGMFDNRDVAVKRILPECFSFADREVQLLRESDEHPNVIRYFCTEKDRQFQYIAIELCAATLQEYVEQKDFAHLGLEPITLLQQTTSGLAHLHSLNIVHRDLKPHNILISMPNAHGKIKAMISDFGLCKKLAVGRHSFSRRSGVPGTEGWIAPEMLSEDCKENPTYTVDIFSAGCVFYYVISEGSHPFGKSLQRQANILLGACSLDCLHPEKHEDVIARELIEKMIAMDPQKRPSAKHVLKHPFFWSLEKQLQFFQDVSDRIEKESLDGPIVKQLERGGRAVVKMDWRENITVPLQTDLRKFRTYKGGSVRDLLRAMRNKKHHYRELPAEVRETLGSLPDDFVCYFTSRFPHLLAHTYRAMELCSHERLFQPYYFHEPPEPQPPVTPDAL
Sequence of Mitogen-activated protein kinase 14 (Q16539 whole entry): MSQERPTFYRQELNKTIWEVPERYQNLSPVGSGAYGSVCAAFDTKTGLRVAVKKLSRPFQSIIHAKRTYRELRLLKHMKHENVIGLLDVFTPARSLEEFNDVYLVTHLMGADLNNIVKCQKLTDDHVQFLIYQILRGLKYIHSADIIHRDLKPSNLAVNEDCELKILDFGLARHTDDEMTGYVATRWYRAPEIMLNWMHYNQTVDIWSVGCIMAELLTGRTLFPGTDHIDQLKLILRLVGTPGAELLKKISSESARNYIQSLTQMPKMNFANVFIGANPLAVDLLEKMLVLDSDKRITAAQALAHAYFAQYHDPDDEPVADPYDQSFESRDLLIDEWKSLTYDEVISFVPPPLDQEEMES

`C=CC(=O)Nc1cccc(C(=O)Nc2ccc(Nc3cc(-c4[nH]c(SC)nc4C)ccn3)cc2)c1`: the values for the % of control in test [1] (at 1 µM) and in [1] (at 5 µM) were 90% and 63%, respectively. On to `Cc1cc([C@@H](C)Nc2ccccc2C(=O)O)c2nc(N3CCOCC3)cc(=O)n2c1` [AZD-6482], for which the % of control in test [2] worked out at 91%. Consider `CN(C)C/C=C/C(=O)Nc1ccc(C(=O)N2CCCC(Nc3ncc(Cl)c(-c4c[nH]c5ccccc45)n3)C2)cc1` (centres undefined), for which the % of control in test [3] was found to be 14%.

Regarding `CCN(CC)CCCCNc1ncc2cc(-c3cc(OC)cc(OC)c3)c(NC(=O)NC(C)(C)C)nc2n1`, in [4], the % of control came to 100%. With `Nc1cnc(N2CCc3cc(S(=O)(=O)Nc4c(F)cc(Cl)cc4F)cc(N4CCCC4=O)c32)nc1` [TP-020n], the % of control in test [5] and in test [6] was 100% throughout. `CCC(=O)N1CCN(c2ccc(-n3c(=O)ccc4cnc5ccc(-c6cnc7ccccc7c6)cc5c43)cc2C(F)(F)F)CC1`: the % of control amounted to 100% in [7]; 100% in test [8]; 68% in [9]; 100% in test [10]; 89% in test [11]; 100% in test [12]. Further, the % of control in test [13] amounted to 60%.

As to `CN(C)CCOc1ccc(-c2nc(-c3ccncc3)c(-c3ccc4c(c3)CC/C4=N\O)[nH]2)cc1`, the % of control in test [14] came out at 94%. As for `CC(=O)c1cc(-c2ccccc2OCC2CC2)c2ncccn12`, the % of control in test [15] was determined as 105%. As to `Cn1cc(-n2cnc3c(NCc4nc5cc(Cl)c(Cl)cc5[nH]4)nc(N4CCOCC4)nc32)cn1`, the % of control in test [16] was -0.292%. For the compound `CNC(=O)Nc1ccc(-c2nc(N3CC4CCC(C3)O4)c3cnn(C4CCC5(CC4)OCCO5)c3n2)cc1`, in [17], the % of inhibition is -16%. As for `CCc1cccc(CC)c1NC(=O)c1nn(C)c2c1CCc1cnc(Nc3ccc(C(=O)NC4CCN(C)CC4)cc3OC(F)(F)F)nc1-2`, the IC50 (commonly the concentration at which inhibition is half-maximal) in [18] is greater than 10 µM.

For `COc1cc(N(C)c2ccnc3ccc(C(F)(F)F)cc23)cc(OC)c1OC`, the % binding in test [19] came out at 88%. For `COCC(=O)NC/C=C/c1ccc2ncnc(Nc3ccc(Oc4ccc(C)nc4)c(C)c3)c2c1` [CP-724714], the % of control amounted to 52% in test [20] and 74% in [21].

On to `N#Cc1cccc(-c2c[nH]c3ncnc(N4CCOCC4)c23)c1`, for which the % of inhibition in test [22] worked out at 11%.

For `CN1Cc2nccc(-c3cn(C)nc3-c3ccc(F)cc3)c2C1=O`, in [23], the % of inhibition is -3%.
